Results from patent US11319299B2, “Substituted carboxamides as inhibitors of WDR5 protein-protein binding” (PROPELLON THERAPEUTICS INC., priority 2016, dated 2022).

Each compound was assayed against WDR5 (Homo sapiens (Human), UniProt P61964) (assay: Surface Plasmon Resonance (SPR) assay, KD and residence time). Conditions: surface plasmon resonance (SPR) assay; read-out: WDR5 binding affinity (KD).
Format: binding

Compared with `C[C@@H]1CN(c2cc(F)c(-c3cncc(C(N)=O)c3)cc2NC(=O)c2c[nH]c(=O)cc2C(F)(F)F)C[C@H](C)N1C` [Example 179, N-[5-(5-carbamoylpyridin-3-yl)-4-fluoro-2-[(3R,5S)-3,4,5-trimethylpiperazin-1-yl]phenyl]-6-oxo-4-(trifluoromethyl)-1H-pyridine-3-carboxamide], `C[C@@H]1CN(c2cc(F)c(-c3cncc(Cl)c3)cc2NC(=O)c2c[nH]c(=O)cc2C(F)(F)F)C[C@H](C)N1C` [Example 206, N-[5-(5-chloropyridin-3-yl)-4-fluoro-2-[(3R,5S)-3,4,5-trimethylpiperazin-1-yl]phenyl]-6-oxo-4-(trifluoromethyl)-1H-pyridine-3-carboxamide] is 3-fold lower in Kd: 11.5 nM for the first, 3.85 nM for the second.

Compared with `C[C@@H]1CN(c2cc(F)c(-c3cncc(C(F)(F)F)c3)cc2NC(=O)c2cn(C)c(=O)cc2C(F)(F)F)C[C@H](C)N1C` [Example 180, N-[4-fluoro-2-[(3R,5S)-3,4,5-trimethylpiperazin-1-yl]-5-[5-(trifluoromethyl)pyridin-3-yl]phenyl]-1-methyl-6-oxo-4-(trifluoromethyl)pyridine-3-carboxamide], `COCCOc1ccc(-c2cc(NC(=O)c3cn(C)c(=O)cc3C(F)(F)F)c(N3C[C@@H](C)N(C)[C@@H](C)C3)cc2F)cn1` [Example 209, N-(4-fluoro-5-(6-(2-methoxyethoxy)pyridin-3-yl)-2-((3S,5R)-3,4,5-trimethylpiperazin-1-yl)phenyl)-1-methyl-6-oxo-4-(trifluoromethyl)-1,6-dihydropyridine-3-carboxamide] is 3.7-fold lower in Kd: 35.4 nM for the first, 9.53 nM for the second.

First: CN(C)[C@@H]1CCN(c2cc(F)c(-c3cnc(N4CCOCC4)nc3)cc2NC(=O)c2cn(C)c(=O)cc2C(F)(F)F)C1 [Example 184, N-[4-fluoro-5-(2-morpholin-4-ylpyrimidin-5-yl)-2-[(3R)-3-(dimethylamino)pyrrolidin-1-yl]phenyl]-1-methyl-6-oxo-4-(trifluoromethyl)pyridine-3-carboxamide]
Second: CN(C)[C@@H]1CCN(c2cc(F)c(-c3cnc(N4CCOCC4)nc3)cc2NC(=O)c2c[nH]nc2C(F)(F)F)C1 [Example 185, N-[4-fluoro-5-(2-morpholin-4-ylpyrimidin-5-yl)-2-[(3R)-3-(dimethylamino)pyrrolidin-1-yl]phenyl]-3-(trifluoromethyl)-1H-pyrazole-4-carboxamide]
The Kd of the first is 3-fold lower: 9.8 nM for the first, 29.8 nM for the second. The first binds more tightly here.

First: C[C@@H]1CN(c2cc(F)c(-c3cnc(N4CCOCC4)nc3)cc2NC(=O)c2cccc(C(F)(F)F)c2)C[C@H](C)N1C [Example 186, N-[4-fluoro-5-(2-morpholin-4-ylpyrimidin-5-yl)-2-[(3R,5S)-3,4,5-trimethylpiperazin-1-yl]phenyl]-3-(trifluoromethyl)benzamide]
Second: C[C@@H]1CN(c2cc(F)c(-c3cnc(N4CCOCC4)nc3)cc2NC(=O)c2cc(C(F)(F)F)ccc2F)C[C@H](C)N1C [Example 189, 2-fluoro-N-[4-fluoro-5-(2-morpholin-4-ylpyrimidin-5-yl)-2-[(3R,5S)-3,4,5-trimethylpiperazin-1-yl]phenyl]-5-(trifluoromethyl)benzamide]
The Kd of the first is 11-fold lower: 40.2 nM for the first, 442 nM for the second.

Going from `C[C@@H]1CN(c2cc(F)c(-c3cnc(N4CCOCC4)nc3)cc2NC(=O)c2cncnc2C(F)(F)F)C[C@H](C)N1C` [Example 187, N-[4-fluoro-5-(2-morpholin-4-ylpyrimidin-5-yl)-2-[(3R,5S)-3,4,5-trimethylpiperazin-1-yl]phenyl]-4-(trifluoromethyl)pyrimidine-5-carboxamide] to `C[C@@H]1CN(c2cc(F)c(-c3cnc(N4CCOCC4)nc3)cc2NC(=O)c2scnc2C(F)(F)F)C[C@H](C)N1C` [Example 188, N-[4-fluoro-5-(2-morpholin-4-ylpyrimidin-5-yl)-2-[(3R,5S)-3,4,5-trimethylpiperazin-1-yl]phenyl]-4-(trifluoromethyl)-1,3-thiazole-5-carboxamide], the Kd falls from 209 nM to 93.2 nM (2.2-fold). The second binds more tightly here.

Compared with `COc1cc(F)cc(C(=O)Nc2cc(-c3cnc(N4CCOCC4)nc3)c(F)cc2N2C[C@@H](C)N(C)[C@@H](C)C2)c1` [Example 190, 3-fluoro-N-[4-fluoro-5-(2-morpholin-4-ylpyrimidin-5-yl)-2-[(3R,5S)-3,4,5-trimethylpiperazin-1-yl]phenyl]-5-methoxybenzamide], `C[C@@H]1CN(c2cc(F)c(-c3cnc(N4CCOCC4)nc3)cc2NC(=O)c2sccc2C(F)(F)F)C[C@H](C)N1C` [Example 211, N-[4-fluoro-5-(2-morpholin-4-ylpyrimidin-5-yl)-2-[(3R,5S)-3,4,5-trimethylpiperazin-1-yl]phenyl]-3-(trifluoromethyl)thiophene-2-carboxamide] is 8.2-fold higher in Kd: 14.7 nM for the first, 120 nM for the second. The first binds more tightly here.

First: C[C@@H]1CN(c2cc(F)c(-c3ccc(N4CCOCC4)cc3)cc2NC(=O)c2cc(Cl)cc(Cl)c2)C[C@H](C)N1C [Example 191, 3,5-dichloro-N-[4-fluoro-5-(4-morpholin-4-ylphenyl)-2-[(3R,5S)-3,4,5-trimethylpiperazin-1-yl]phenyl]benzamide]
Second: C[C@@H]1CN(c2cc(F)c(-c3ccc(N4CCOCC4)cc3)cc2NC(=O)c2cn(C)c(=O)cc2C(F)(F)F)C[C@H](C)N1C [Example 204, N-[4-fluoro-5-(4-morpholin-4-ylphenyl)-2-[(3R,5S)-3,4,5-trimethylpiperazin-1-yl]phenyl]-1-methyl-6-oxo-4-(trifluoromethyl)pyridine-3-carboxamide]
The Kd of the first is 1.6-fold higher: 21.5 nM for the first, 13.8 nM for the second.

First: C[C@@H]1CN(c2cc(F)c(-c3cnc(N4CCCN(C)CC4)nc3)cc2NC(=O)c2ccc(F)cc2C(F)(F)F)C[C@H](C)N1C [Example 203, 4-fluoro-N-[4-fluoro-5-[2-(4-methyl-1,4-diazepan-1-yl)pyrimidin-5-yl]-2-[(3R,5S)-3,4,5-trimethylpiperazin-1-yl]phenyl]-2-(trifluoromethyl)benzamide]
Second: C[C@@H]1CN(c2cc(F)c(-c3cnc(N4CCCC4)nc3)cc2NC(=O)c2cn(C)c(=O)cc2C(F)(F)F)C[C@H](C)N1C [Example 210, N-[4-fluoro-5-(2-pyrrolidin-1-ylpyrimidin-5-yl)-2-[(3R,5S)-3,4,5-trimethylpiperazin-1-yl]phenyl]-1-methyl-6-oxo-4-(trifluoromethyl)pyridine-3-carboxamide]
The Kd of the first is 2.3-fold lower: 1.66 nM for the first, 3.86 nM for the second. The first binds more tightly here.

`C[C@@H]1CN(c2cc(F)c(-c3cncc(C#N)c3)cc2NC(=O)c2c[nH]c(=O)cc2C(F)(F)F)C[C@H](C)N1C` [Example 205, N-[5-(5-cyanopyridin-3-yl)-4-fluoro-2-[(3R,5S)-3,4,5-trimethylpiperazin-1-yl]phenyl]-6-oxo-4-(trifluoromethyl)-1H-pyridine-3-carboxamide] and `C[C@@H]1CN(c2cc(F)c(-c3cccnc3OC3CCCCC3)cc2NC(=O)c2c[nH]c(=O)cc2C(F)(F)F)C[C@H](C)N1C` [Example 207, N-[5-(2-cyclohexyloxypyridin-3-yl)-4-fluoro-2-[(3R,5S)-3,4,5-trimethylpiperazin-1-yl]phenyl]-6-oxo-4-(trifluoromethyl)-1H-pyridine-3-carboxamide] are within 1.5-fold of each other in Kd: 8.15 nM for the first, 6.69 nM for the second.

For `COc1ccc(CC(=O)N2CC=C(c3cc(NC(=O)c4c[nH]c(=O)cc4C(F)(F)F)c(N4C[C@@H](C)N(C)[C@@H](C)C4)cc3F)CC2)cc1` [Example 208, N-[4-fluoro-5-[1-[2-(4-methoxyphenyl)acetyl]-3,6-dihydro-2H-pyridin-4-yl]-2-[(3R,5S)-3,4,5-trimethylpiperazin-1-yl]phenyl]-6-oxo-4-(trifluoromethyl)-1H-pyridine-3-carboxamide], the Kd was 0.57 nM.
